According to patent US20260166162A1, “CARBON CHAIN SUBSTANCE FOR REGULATING TRANSMEMBRANE TRANSPORT AND FLUIDITY OF CELL MEMBRANES, AND PREPARATION AND USE THEREOF” (priority 2022, published 2026):
Where two headings read alike, the source gives them in different places.

Legend:
IL-1β = experiment: LPS inflammatory aging in C57BL/6 mice, serum IL-1β (Example II-55, Table II-35); type: in vivo, mouse; conditions: 1 mM, 200 μl/time, once a day, 30 days
IL-6 = experiment: LPS inflammatory aging in C57BL/6 mice, serum IL-6 (Example II-55, Table II-36); type: in vivo, mouse; conditions: 1 mM, 200 μl/time once a day for 30 days; serum, LPS C57BL/6 mice
TNF-α = experiment: LPS inflammatory aging in C57BL/6 mice, serum TNF-α (Example II-55, Table II-37); type: in vivo, mouse; conditions: 1 mM, 200 μl/time once a day for 30 days, LPS C57BL/6 mice
HIV pseudovirus (18A-41) = type: cell-based; conditions: 293T cells pretreated 4 h, n=3
Neocopyovirus = type: in vivo; conditions: 1 mM; n=3
[1] = test system: SARS-CoV-2 pseudovirus (B.1.526.2); type: cell-based; conditions: n=3
293T cells = experiment: Cellular phagocytosis of DiD-loaded lipid vesicles (nano-drugs) by 293T cells (Example II-51, Table II-29); type: cell-based; conditions: 293T cells pretreated 4 h, DiD lipid vesicles 2 h, n=3, untreated control 226.46 ± 1.26
Escherichia coli = experiment: Bacteriostasis/sterilization test (plate count); type: cell-based; conditions: 0.035 mM (Table 25)
Staphylococcus aureus = experiment: Bacteriostasis/sterilization test (plate count); type: cell-based; conditions: for Inhibition rate (%): 0.035 mM (Table 25); for inhibition rate: concentration 0.035 mM; for IC50: read-out: half inhibition concentration
[2] = test system: Methicillin-resistant Staphylococcus aureus; experiment: Bacteriostasis/sterilization test (plate count); type: cell-based; conditions: 0.035 mM (Table 25)
Streptococcus pneumoniae = experiment: Bacteriostasis/sterilization test (plate count); type: cell-based; conditions: 0.035 mM (Table 25)
Klebsiella pneumoniae = experiment: Bacteriostasis/sterilization test (plate count); type: cell-based; conditions: 0.035 mM (Table 25)
Pseudomonas aeruginosa = experiment: Bacteriostasis/sterilization test (plate count); type: cell-based; conditions: 0.035 mM (Table 25)
H7N9 pseudovirus = type: cell-based, Influenza pseudovirus H7N9-Fluc
H5N1 pseudovirus = type: cell-based, Influenza pseudovirus H5N1-Fluc
HIV pseudovirus = type: cell-based, HIV pseudovirus HIV18A-41
SARS-CoV-2 pseudovirus = type: cell-based, SARS-CoV-2 pseudovirus B.1.526.2

Row | Compound | Fluorescence intensity (Neocopyovirus) | Inhibition rate (%) ([1]; 2 nM) | Inhibition rate (%) ([1]; 5 nM) | Inhibition rate (%) ([1]; 10 nM) | Inhibition rate (%) ([1]; 50 nM) | Inhibition rate (%) ([1]; 100 nM) | Inhibition rate (%) ([1]; 1 μM) | Inhibition rate (%) ([1]; 10 μM) | Inhibition rate (%) ([1]; 50 μM) | Inhibition rate (%) ([1]; 100 μM) | Fluorescence intensity (293T cells; 2 nM) | Fluorescence intensity (293T cells; 5 nM) | Fluorescence intensity (293T cells; 10 nM) | Fluorescence intensity (293T cells; 50 nM) | Fluorescence intensity (293T cells; 100 nM) | Fluorescence intensity (293T cells; 1 uM) | Fluorescence intensity (293T cells; 10 uM) | Fluorescence intensity (293T cells; 50 uM) | Fluorescence intensity (293T cells; 100 uM) | Inhibition rate (%) (Escherichia coli) | other results
1 | CCC=CCC=CCC=CCCCCCCCC(=O)OC(C)C(N)C(=O)O (centres unmarked) [Thr-linolenic acid] | – | – | – | – | – | – | – | – | – | – | – | – | – | – | – | – | – | – | – | – | IL-1β (IL-1β): 41 pg/mL; IL-6 (IL-6): 57 pg/mL; TNF-α (TNF-α): 52 pg/mL
2 | Threonine-tetracosanoic acid | 2.9 ± 0.11 | – | – | – | – | – | – | – | – | – | – | – | – | – | – | – | – | – | – | – | Inhibition rate (%) (HIV pseudovirus (18A-41); 2 nM): 81.01 ± 5.26%; Inhibition rate (%) (HIV pseudovirus (18A-41); 5 nM): 92.25 ± 5.03%; Inhibition rate (%) (HIV pseudovirus (18A-41); 10 nM): 94.06 ± 6.46%; Inhibition rate (%) (HIV pseudovirus (18A-41); 50 nM): 99.01 ± 6.33%; Inhibition rate (%) (HIV pseudovirus (18A-41); 100 nM): 98.64 ± 5.77%; Inhibition rate (%) (HIV pseudovirus (18A-41); 1 μM): -42.03 ± 3.83%; Inhibition rate (%) (HIV pseudovirus (18A-41); 10 μM): -64.26 ± 6.54%; Inhibition rate (%) (HIV pseudovirus (18A-41); 50 μM): 81.96 ± 6.75%; Inhibition rate (%) (HIV pseudovirus (18A-41); 100 μM, negative value = promotes infection): 83.84 ± 3.84%
3 | CCCCCC=CCC=CCCCCCCCC(=O)OCC(N)C(=O)O (centres unmarked) [Serine-LA] | 2.8 ± 0.56 | 60.54 ± 5.59% | 79.66 ± 5.97% | 78.34 ± 4.87% | 77.33 ± 4.56% | 73.66 ± 1.33% | -102.33 ± 4.36% | 54.26 ± 0.53% | 51.36 ± 0.87% | 93.68 ± 0.73% | 89.36 ± 0.21 | 46.06 ± 0.02 | 49.05 ± 0.22 | 51.34 ± 0.32 | 59.65 ± 0.54 | 458.20 ± 0.55 | 103.58 ± 0.71 | 110.15 ± 0.41 | 14.31 ± 0.13 | – | –
4 | CCCCCCCC/C=C\CCCCCCCC(=O)OC(C)C(N)C(=O)O (centres unmarked) | – | – | – | – | – | – | – | – | – | – | – | – | – | – | – | – | – | – | – | 99% | Inhibition rate (%) (Staphylococcus aureus): 99%; inhibition rate (Staphylococcus aureus): greater than 99%; IC50 (Staphylococcus aureus): 9 µM; Inhibition rate (%) [2]: 99%; Inhibition rate (%) (Streptococcus pneumoniae): 99%; Inhibition rate (%) (Klebsiella pneumoniae): 99%; Inhibition rate (%) (Pseudomonas aeruginosa): 99%; Sterilization rate (%) (H7N9 pseudovirus): 99%; Sterilization rate (%) (H5N1 pseudovirus): 99%; Sterilization rate (%) (HIV pseudovirus): 99%; Sterilization rate (%) (SARS-CoV-2 pseudovirus): 99%
5 | CCCCCCCC(=O)OCC(N)C(=O)O (centres unmarked) | – | 30.54 ± 0.54% | 52.06 ± 5.23% | 53.84 ± 1.57% | 56.33 ± 1.56% | 63.22 ± 2.55% | -97.39 ± 7.23% | -44.26 ± 0.03% | 71.36 ± 0.28% | 73.55 ± 0.44% | 157.30 ± 0.13 | 108.56 ± 0.13 | 104.53 ± 0.13 | 98.90 ± 0.13 | 83.29 ± 5.66 | 447.01 ± 12.33 | 326.69 ± 4.66 | 64.86 ± 5.13 | 59.90 ± 4.13 | 99% | Inhibition rate (%) (Staphylococcus aureus): 99%; inhibition rate (Staphylococcus aureus): greater than 99%; IC50 (Staphylococcus aureus): 9 µM; Inhibition rate (%) [2]: 99%; Inhibition rate (%) (Streptococcus pneumoniae): 99%; Inhibition rate (%) (Klebsiella pneumoniae): 99%; Inhibition rate (%) (Pseudomonas aeruginosa): 99%; Sterilization rate (%) (H7N9 pseudovirus): 99%; Sterilization rate (%) (H5N1 pseudovirus): 99%; Sterilization rate (%) (HIV pseudovirus): 99%; Sterilization rate (%) (SARS-CoV-2 pseudovirus): 99%
